Measured values published in PubChem BioAssay (NCI).
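48-hour exposure; five concentrations; linearly interpolated endpoints. TGI: concentration producing complete growth inhibition.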

Tests used:
Test in all cases: NCI-60 cell line screen, 48 h
[1] = system: K-562 leukemia
[2] = system: SN12C renal
[3] = system: DLD-1 colon
[4] = system: MOLT-4 leukemia
[5] = system: IGROV1 ovarian
[6] = system: OVCAR-3 ovarian
[7] = system: 786-0 renal
[8] = system: CCRF-CEM leukemia
[9] = system: RXF 393 renal
[10] = system: SNB-78 CNS
[11] = system: NCI-H460 lung
[12] = system: HT29 colon
[13] = system: HOP-92 NSCLC
[14] = system: SK-MEL-5 melanoma
[15] = system: OVCAR-8 ovarian
[16] = system: HCT-15 colon
[17] = system: M19-MEL melanoma
[18] = system: SK-MEL-28 melanoma
[19] = system: LXFL 529 NSCLC
[20] = system: DMS 273 small cell lung
[21] = system: MALME-3M melanoma
[22] = system: DMS 114 small cell lung
[23] = system: SF-539 CNS
[24] = system: XF 498 CNS
[25] = system: RXF-631 renal
[26] = system: OVCAR-5 ovarian
[27] = system: HCT-116 colon
[28] = system: UACC-257 melanoma
[29] = system: HOP-18 NSCLC
[30] = system: NCI-H23 lung
[31] = system: KM20L2 colon
[32] = system: UACC-62 melanoma
[33] = system: NCI-H226 lung
[34] = system: SNB-19 CNS
[35] = system: HOP-62 NSCLC
[36] = system: OVCAR-4 ovarian
[37] = system: EKVX NSCLC
[38] = system: UO-31 renal
[39] = system: ACHN renal
[40] = system: HCC-2998 colon
[41] = system: TK-10 renal
[42] = system: HL-60(TB) leukemia
[43] = system: U251 CNS
[44] = system: SNB-75 CNS
[45] = system: M14 melanoma
[46] = system: SK-MEL-2 melanoma
[47] = system: SF-268 CNS
[48] = system: A498 renal
[49] = system: COLO 205 colon
[50] = system: LOX IMVI melanoma
[51] = system: A549 NSCLC
[52] = system: RPMI-8226 leukemia
[53] = system: SW-620 colon
[54] = system: SR leukemia
[55] = system: SF-295 CNS
[56] = system: SK-OV-3 ovarian
[57] = system: NCI-H522 lung
[58] = system: CAKI-1 renal
[59] = system: KM12 colon

CN(C)CCN(C)C(=O)c1cccc2cccc(C(=O)O)c12
TGI [1]: > 100 µM
TGI [2]: > 100 µM
TGI [3]: > 100 µM
TGI [4]: > 100 µM
TGI [5]: > 100 µM
TGI [6]: > 100 µM
TGI [7]: > 100 µM
TGI [8]: > 100 µM
TGI [9]: > 100 µM
TGI [10]: > 100 µM
TGI [11]: > 100 µM
TGI [12]: > 100 µM
TGI [13]: > 100 µM
TGI [14]: > 100 µM
TGI [15]: > 100 µM
TGI [16]: > 100 µM
TGI [17]: > 100 µM
TGI [18]: > 100 µM
TGI [19]: > 100 µM
TGI [20]: > 100 µM
TGI [21]: > 100 µM
TGI [22]: > 100 µM
TGI [23]: > 100 µM
TGI [24]: > 100 µM
TGI [25]: > 100 µM
TGI [26]: > 100 µM
TGI [27]: > 100 µM
TGI [28]: > 100 µM
TGI [29]: > 100 µM
TGI [30]: > 100 µM
TGI [31]: > 100 µM
TGI [32]: > 100 µM
TGI [33]: > 100 µM
TGI [34]: > 100 µM
TGI [35]: > 100 µM
TGI [36]: > 100 µM
TGI [37]: > 100 µM
TGI [38]: > 100 µM
TGI [39]: > 100 µM
TGI [40]: > 100 µM
TGI [41]: > 100 µM
TGI [42]: > 100 µM
TGI [43]: > 100 µM
TGI [44]: > 100 µM
TGI [45]: > 100 µM
TGI [46]: 38.7 µM
TGI [47]: > 100 µM
TGI [48]: > 100 µM
TGI [49]: > 100 µM
TGI [50]: > 100 µM
TGI [51]: > 100 µM
TGI [52]: > 100 µM
TGI [53]: > 100 µM
TGI [54]: > 100 µM
TGI [55]: > 100 µM
TGI [56]: > 100 µM

O=c1c(C(c2ccc([N+](=O)[O-])cc2)c2c(O)c3ccccc3n(-c3ccccc3)c2=O)c(O)c2ccccc2n1-c1ccccc1
TGI [1]: > 100 µM
TGI [2]: > 100 µM
TGI [3]: > 100 µM
TGI [4]: 41.9 µM
TGI [5]: > 100 µM
TGI [6]: 70.5 µM
TGI [7]: 26.9 µM
TGI [8]: 13.4 µM
TGI [9]: 40.1 µM
TGI [10]: > 100 µM
TGI [13]: 29.3 µM
TGI [14]: 38 µM
TGI [15]: 73.9 µM
TGI [16]: 30.7 µM
TGI [17]: > 100 µM
TGI [18]: 66.5 µM
TGI [19]: 54.7 µM
TGI [20]: > 100 µM
TGI [57]: 86.6 µM
TGI [58]: > 100 µM
TGI [21]: 28.8 µM
TGI [22]: 73.5 µM
TGI [59]: 82.5 µM
TGI [23]: 28 µM
TGI [24]: 58.4 µM
TGI [25]: 44.6 µM
TGI [26]: > 100 µM
TGI [27]: 76.5 µM
TGI [29]: 9.08 µM
TGI [30]: 34.3 µM
TGI [31]: > 100 µM
TGI [32]: 14.8 µM
TGI [33]: 74.8 µM
TGI [34]: > 100 µM
TGI [35]: 37.4 µM
TGI [36]: > 100 µM
TGI [37]: 59.7 µM
TGI [38]: 21.3 µM
TGI [39]: 72 µM
TGI [40]: 29.1 µM
TGI [41]: > 100 µM
TGI [43]: 75.2 µM
TGI [46]: 31 µM
TGI [47]: 98.6 µM
TGI [49]: 63.4 µM
TGI [50]: 27.2 µM
TGI [51]: > 100 µM
TGI [52]: 57.1 µM
TGI [53]: 57.7 µM
TGI [54]: 62.7 µM
TGI [55]: 33.3 µM
TGI [56]: > 100 µM

O=C(O)CCSC(=O)Nc1cccc2ccccc12
TGI [1]: > 100 µM
TGI [2]: > 100 µM
TGI [3]: > 100 µM
TGI [4]: > 100 µM
TGI [5]: > 100 µM
TGI [6]: > 100 µM
TGI [7]: > 100 µM
TGI [8]: > 100 µM
TGI [9]: > 100 µM
TGI [10]: > 100 µM
TGI [11]: > 100 µM
TGI [12]: > 100 µM
TGI [13]: > 100 µM
TGI [14]: > 100 µM
TGI [15]: > 100 µM
TGI [16]: > 100 µM
TGI [17]: > 100 µM
TGI [18]: > 100 µM
TGI [19]: > 100 µM
TGI [20]: > 100 µM
TGI [58]: > 100 µM
TGI [21]: > 100 µM
TGI [22]: > 100 µM
TGI [59]: > 100 µM
TGI [23]: > 100 µM
TGI [24]: > 100 µM
TGI [25]: > 100 µM
TGI [26]: > 100 µM
TGI [27]: > 100 µM
TGI [28]: > 100 µM
TGI [29]: > 100 µM
TGI [30]: > 100 µM
TGI [31]: > 100 µM
TGI [32]: > 100 µM
TGI [33]: > 100 µM
TGI [34]: > 100 µM
TGI [35]: > 100 µM
TGI [36]: > 100 µM
TGI [37]: > 100 µM
TGI [38]: > 100 µM
TGI [39]: > 100 µM
TGI [40]: > 100 µM
TGI [41]: > 100 µM
TGI [43]: > 100 µM
TGI [44]: > 100 µM
TGI [45]: > 100 µM
TGI [47]: > 100 µM
TGI [48]: > 100 µM
TGI [49]: > 100 µM
TGI [50]: > 100 µM
TGI [51]: > 100 µM
TGI [52]: > 100 µM
TGI [53]: > 100 µM
TGI [54]: > 100 µM
TGI [55]: > 100 µM
TGI [56]: > 100 µM

O=[N+]([O-])c1cccc(C2=NN(c3ccccc3)C3c4ccccc4OCC23)c1 (centres undefined)
TGI [1]: > 100 µM
TGI [3]: > 100 µM
TGI [4]: > 100 µM
TGI [5]: > 100 µM
TGI [6]: > 100 µM
TGI [7]: > 100 µM
TGI [8]: > 100 µM
TGI [9]: > 100 µM
TGI [10]: > 100 µM
TGI [11]: > 100 µM
TGI [12]: > 100 µM
TGI [13]: > 100 µM
TGI [15]: > 100 µM
TGI [17]: > 100 µM
TGI [18]: > 100 µM
TGI [19]: > 100 µM
TGI [20]: > 100 µM
TGI [57]: > 100 µM
TGI [21]: > 100 µM
TGI [22]: > 100 µM
TGI [59]: > 100 µM
TGI [23]: > 100 µM
TGI [24]: > 100 µM
TGI [25]: > 100 µM
TGI [26]: > 100 µM
TGI [27]: > 100 µM
TGI [28]: > 100 µM
TGI [29]: > 100 µM
TGI [30]: > 100 µM
TGI [31]: > 100 µM
TGI [34]: > 100 µM
TGI [35]: > 100 µM
TGI [37]: > 100 µM
TGI [38]: > 100 µM
TGI [39]: > 100 µM
TGI [40]: > 100 µM
TGI [41]: > 100 µM
TGI [42]: > 100 µM
TGI [43]: > 100 µM
TGI [44]: > 100 µM
TGI [46]: > 100 µM
TGI [47]: > 100 µM
TGI [48]: > 100 µM
TGI [49]: > 100 µM
TGI [50]: > 100 µM
TGI [51]: > 100 µM
TGI [52]: > 100 µM
TGI [53]: > 100 µM
TGI [55]: > 100 µM
TGI [56]: > 100 µM
